Test systems include KM12; SNB-19; U-251; EKVX; SR; DU-145; MDA-N; LOX IMVI; SN12C; T47D; OVCAR-3; TK-10; SF-539; BT-549; MDA-MB-435; NCI-H23; UACC-257; SF-295; NCI-H460.
What all share (test): inhibition of tumour cell growth, NCI panel, 48 h

The structures appear in SMILES notation.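 Tested at 5 concentrations; 48 h exposure; 96-well plates; endpoints linearly interpolated, else capped at highest concentration. Abbreviation: GI50, concentration required for 50% inhibition of growth.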 Activity calls are given as the source filed them. Rule as the data show it: active = GI50 up to about 1.1 µM and inactive = higher.

`COc1ccc(-c2cc3ccccc3oc2=O)cc1OC`: the GI50 was > 100 µM (inactive) with KM12; 90.6 µM (inactive) in the assay with SNB-19; > 100 µM (inactive) in the assay on U-251; > 100 µM (inactive) in the assay on EKVX; > 100 µM (inactive) with SR; > 100 µM (inactive) with DU-145. In addition, the GI50 with MDA-N, with LOX IMVI, with SN12C, with T47D, in the assay with OVCAR-3 and with TK-10 was > 100 µM (inactive) each time. The GI50 with SF-539, with BT-549, in the assay with MDA-MB-435, in the assay on NCI-H23, with UACC-257 and in the assay on SF-295 was > 100 µM (inactive) each time.

On to `FC(F)(F)c1nc2nc(Cl)c(Cl)nc2n1CCCN1CCOCC1`, for which the GI50 in the assay on KM12 is > 100 µM (inactive); in the assay with SNB-19, 51.4 µM (inactive); in the assay with U-251 it was 65.9 µM (inactive); in the assay with NCI-H460 it was 52 µM (inactive); in the assay on EKVX it was 23.4 µM (inactive); in the assay with SR, 0.489 µM (active). Besides, the GI50 was 24.9 µM (inactive) in the assay with DU-145; 35.7 µM (inactive) with MDA-N; 30.4 µM (inactive) in the assay on LOX IMVI; 84.9 µM (inactive) with SN12C; 47 µM (inactive) in the assay with T47D; 64.3 µM (inactive) in the assay on OVCAR-3. Moreover, the GI50 in the assay on TK-10 is > 100 µM (inactive); in the assay on SF-539 it was 72.4 µM (inactive); with BT-549, 56 µM (inactive); in the assay on MDA-MB-435, 44.9 µM (inactive); in the assay with NCI-H23, 34.7 µM (inactive); in the assay with UACC-257, 24 µM (inactive). In addition, the GI50 in the assay on SF-295 was > 100 µM (inactive).

As to `CC1CCN(CC(=O)N2c3ccccc3Sc3cc4ccccc4cc32)CC1`, the GI50 in the assay on KM12 is 51.9 µM (inactive); with SNB-19 it was > 100 µM (inactive); in the assay with U-251, > 100 µM (inactive); in the assay on NCI-H460 it was 37.5 µM (inactive); in the assay with EKVX, > 100 µM (inactive); with SR, 54.6 µM (inactive). Further, the GI50 with DU-145 is > 100 µM (inactive); in the assay on MDA-N, > 100 µM (inactive); in the assay on LOX IMVI it was > 100 µM (inactive); in the assay on SN12C, 38.7 µM (inactive); in the assay with T47D, > 100 µM (inactive); in the assay with OVCAR-3 it was > 100 µM (inactive). In addition, the GI50 in the assay with TK-10, in the assay on SF-539, in the assay on BT-549, in the assay with MDA-MB-435, in the assay with NCI-H23 and in the assay on UACC-257 was > 100 µM (inactive) throughout. Besides, in the assay with SF-295, the GI50 is > 100 µM (inactive).

With `COc1ccc(/C=C/C=C2C(=O)NC(=S)NC2=O)cc1`, the GI50 is 8.79 µM (inactive) with KM12; 7.59 µM (inactive) in the assay with SNB-19; 2.16 µM (inactive) with U-251; 12.5 µM (inactive) with NCI-H460; 8.91 µM (inactive) in the assay on EKVX; 1.35 µM (inactive) with SR. The GI50 in the assay on DU-145 is 6.03 µM (inactive); in the assay with MDA-N, 4.07 µM (inactive); in the assay on LOX IMVI it was 1.89 µM (inactive); with SN12C, 7.35 µM (inactive); with T47D, 34.9 µM (inactive); in the assay on OVCAR-3, 6.78 µM (inactive). Also, the GI50 is 2.52 µM (inactive) with TK-10; 4.41 µM (inactive) in the assay with SF-539; 2.05 µM (inactive) in the assay with BT-549; 2.59 µM (inactive) in the assay on MDA-MB-435; 9.71 µM (inactive) in the assay with NCI-H23; 9.62 µM (inactive) in the assay on UACC-257. Further, the GI50 in the assay on SF-295 is 16.2 µM (inactive).

Consider `CC1=NN(c2ccccc2)C(=O)C1/N=N/c1ccc(S(N)(=O)=O)cc1` (stereo not drawn), for which the GI50 in the assay on KM12, in the assay on SNB-19, in the assay with U-251, in the assay on NCI-H460, with EKVX and in the assay with SR was > 100 µM (inactive) throughout. Further, the GI50 with DU-145, in the assay with MDA-N, in the assay with LOX IMVI, in the assay on SN12C, in the assay on T47D and with OVCAR-3 was > 100 µM (inactive) throughout. The GI50 in the assay with TK-10, in the assay on SF-539, with BT-549, in the assay with MDA-MB-435, with NCI-H23 and with UACC-257 was > 100 µM (inactive) each time. Moreover, the GI50 in the assay with SF-295 was > 100 µM (inactive).

On to `N#CC(c1ccccc1)(c1ccccc1)[C@@H](c1ccccc1)[C@H](Cc1ccccc1)NS(=O)(=O)c1ccccc1`, for which the GI50 is > 100 µM (inactive) with KM12; > 100 µM (inactive) in the assay on SNB-19; > 100 µM (inactive) in the assay with U-251; 66.7 µM (inactive) in the assay on NCI-H460; > 100 µM (inactive) in the assay on EKVX; 83.9 µM (inactive) in the assay on SR. Moreover, the GI50 with DU-145, in the assay on MDA-N, with LOX IMVI, with SN12C, in the assay with T47D and in the assay with OVCAR-3 was > 100 µM (inactive) in each case. Also, the GI50 in the assay on TK-10, in the assay on SF-539, in the assay with BT-549, with MDA-MB-435, with NCI-H23 and with UACC-257 was > 100 µM (inactive) each time. In the assay on SF-295, the GI50 was > 100 µM (inactive).

For `O=C1c2ccccc2C(=O)c2c(NC(=O)C(Cl)CCl)cccc21` (stereo not drawn), the GI50 in the assay with KM12 is 2.58 µM (inactive); with SNB-19 it was 15.2 µM (inactive); in the assay on U-251, 3.33 µM (inactive); in the assay on NCI-H460, 6.32 µM (inactive); in the assay on EKVX, 19.4 µM (inactive); with SR, < 0.01 µM (active). Moreover, the GI50 in the assay on DU-145 was 7.38 µM (inactive); in the assay with MDA-N, 10.4 µM (inactive); with LOX IMVI, 2.44 µM (inactive); in the assay on SN12C, 7.67 µM (inactive); with T47D, 2.75 µM (inactive); in the assay with OVCAR-3, 11 µM (inactive). Further, the GI50 is 4.37 µM (inactive) in the assay on TK-10; 4.83 µM (inactive) in the assay with SF-539; 17.1 µM (inactive) in the assay on BT-549; 7.11 µM (inactive) in the assay on MDA-MB-435; 4.03 µM (inactive) in the assay with NCI-H23; 14.7 µM (inactive) with UACC-257. The GI50 with SF-295 was 26.7 µM (inactive).

With `Cn1c2ccccc2c(=NNc2ccc(S(N)(=O)=O)cc2)c2ccccc21`, the GI50 is 11.2 µM (inactive) in the assay on KM12; 27.6 µM (inactive) in the assay on SNB-19; 19 µM (inactive) in the assay with U-251; 9.18 µM (inactive) in the assay with NCI-H460; 12 µM (inactive) in the assay with EKVX; 8.81 µM (inactive) with SR. The GI50 was 21.6 µM (inactive) in the assay with DU-145; 15.9 µM (inactive) in the assay with MDA-N; 9.29 µM (inactive) with LOX IMVI; 18.4 µM (inactive) with SN12C; 5.45 µM (inactive) in the assay on T47D; 19.5 µM (inactive) in the assay with OVCAR-3. The GI50 with TK-10 was 15 µM (inactive); with SF-539 it was 22.5 µM (inactive); in the assay with BT-549 it was 8.39 µM (inactive); in the assay on MDA-MB-435, 16.2 µM (inactive); in the assay on NCI-H23, 16 µM (inactive); with UACC-257 it was 17.1 µM (inactive). Also, the GI50 in the assay on SF-295 is 13.6 µM (inactive).

Consider `COc1cc2oc3cc(=O)cc4oc(-c5ccccc5)cc(c2c2c1CCC(c1ccccc1)O2)c43` (stereo not drawn), for which the GI50 was 17 µM (inactive) in the assay with KM12; 63 µM (inactive) with SNB-19; 43.1 µM (inactive) with U-251; 27.5 µM (inactive) in the assay on NCI-H460; 65.6 µM (inactive) in the assay on EKVX; 11.1 µM (inactive) with SR. Moreover, the GI50 in the assay on DU-145 was 24.3 µM (inactive); with MDA-N it was 22 µM (inactive); in the assay on LOX IMVI, 31.9 µM (inactive); in the assay on SN12C it was 25.2 µM (inactive); in the assay on T47D, 17.7 µM (inactive); with OVCAR-3, 26 µM (inactive). The GI50 in the assay with TK-10 was 26.6 µM (inactive); in the assay with SF-539, 24.5 µM (inactive); with BT-549, 80.5 µM (inactive); in the assay on MDA-MB-435 it was 22.7 µM (inactive); in the assay on NCI-H23, 62.8 µM (inactive); in the assay with UACC-257, 26.7 µM (inactive). In addition, the GI50 in the assay on SF-295 was 19.1 µM (inactive).

Consider `CC[C@]1(Cc2ccc(OC)c(OC)c2)C=[N+]([O-])O[C@H](OC2CCCC2(c2ccccc2)c2ccccc2)[C@@H]1OC(=O)c1ccccc1` (stereo partly drawn), for which the GI50 in the assay with KM12 was 3.9 µM (inactive); with SNB-19 it was > 29.2 µM (inactive); in the assay on U-251, 42.1 µM (inactive); in the assay on NCI-H460, 14.2 µM (inactive); in the assay with EKVX it was 3.86 µM (inactive); in the assay with SR, 3.1 µM (inactive). Besides, the GI50 is 10.6 µM (inactive) in the assay on DU-145; 8.17 µM (inactive) in the assay with MDA-N; 3.6 µM (inactive) in the assay with LOX IMVI; > 21.2 µM (inactive) in the assay with SN12C; 2.73 µM (inactive) in the assay on T47D; 3.15 µM (inactive) in the assay on OVCAR-3. Also, the GI50 is > 100 µM (inactive) in the assay on SF-539; > 27.1 µM (inactive) in the assay on BT-549; 3.73 µM (inactive) in the assay on MDA-MB-435; 6.37 µM (inactive) in the assay with NCI-H23; 14 µM (inactive) in the assay on UACC-257; 14.1 µM (inactive) in the assay with SF-295.

These data come from ChEMBL document CHEMBL1201862, “PubChem BioAssay data set” (2004).
